Measurements as given in patent US20200383946A1, “LIPOIC ACID FORMULATIONS” (Aciont Inc., priority 2019, published 2020).

Test: physchem
Format: physicochemical
Details: aqueous buffer, solubility of DHLA
Excerpt: Dihydrolipoic acid (DHLA) was obtained from Sigma (Cat #T8260).
Again, the PBS helped maintain the pH within a suitable pH range.

solubility: > 76 mg/mL
Compound: O=C(O)CCCC[C@@H](S)CCS (racemic) [DHLA, Dihydrolipoic acid]
